Test results taken from patent US11235001B2, “RUNX inhibitor” (KYOTO UNIVERSITY, priority 2016, dated 2022).
Where two headings read alike, the source gives them in different places.

Assays:
c-kit = test: FACS of cell surface c-kit, LAD2 mast cells; type: cell-based, human; conditions: LAD2 (wild-type c-kit), 10 μM, 18-hour treatment; DMSO 68.3
Description: Mast cells cause symptoms or diseases such as allergic reaction by receptor-mediated activation. In addition, c-kit signal transduction enhances release of chemical mediators from stimulated mast cells. The effect of the RUNX inhibitor on human mast cells was examined. As human mast cells, a LAD2 cell line (expressing wild-type c-kit) and an HMC-1.2 cell line (expressing mutated c-kit) were used. The HMC-1.2 cell line has KIT D816V mutation and V560G mutation. Wild-type c-kit is a SCF receptor and the cell proliferation is dependent on SCF. Accordingly, regarding the LAD2 cell line, 50 ng/ml of SCF was administered and experiments were performed as described below. The HMC-1.2 cell line has a mutation in c-kit and the cell proliferation is independent of SCF. Accordingly, regarding the HMC-1.2 cell line, SCF was not administered and experiments were performed as described below. As the RUNX inhibitor, Chb-M′ was used. […]
To the LAD2 cell line, 10 μM Chb-M′ was administered. After 3 hours and 18 hours, different antibodies were used for immunostaining of c-kit expressed on the cell surface, and the expression levels were analyzed by FACS (fluorescence-activated cell sorter). […] After 18 hours, different antibodies were used for immunostaining of c-kit expressed on the cell surface, and the expression levels were analyzed by FACS. […]

PC-3 cells = conditions: read-out: IC50 (μM) in PC-3 cells; PC-3 (p53null/PTEN del/androgen-independent), 48 hours
HL60 = conditions: HL60, p53null; for IC50: 48 hours
p53 mutated cells = test: Concomitant use with p53 inducer MIRA-1 in p53 mutated cells; type: cell-based, human; conditions: compared with the PRIMA-1 experiments (synergistic inhibition)
Experimental: We examined the effect of concomitant use of the conjugates and a p53 inducer. […] KG1a and HL60 cells are null for p53 (p53null cell lines). MV4-11NR, Kasumi-1 and THP-1 cells harbor mutated p53 (p53mut(+) cell lines).
Further, the same experiments were performed using a p53 inducer MIRA-1 and the same results were obtained. Although the PI polyamide conjugates of the present invention may greatly reduce their potency in p53 mutated cells (cancer cells harboring mutated p53 or no p53), concomitant use with a p53 inducer enables suppression of such p53 mutated cells.

ABC-1 = test: Cell viability, lung adenocarcinoma ABC-1; type: cell-based, human; conditions: ABC-1 (EGFR wild-type p53-mutated), 48 hours
[1] = system: RUNX family (RUNX1, RUNX2 and RUNX3); test: Gene expression microarray in MV4-11 cells vs RUNX family knockdown; type: cell-based, human; conditions: 1 μM, 6 hours, top 500 up- and down-regulated genes

CN(C)CCCNC(=O)c1cc(NC(=O)c2cc(NC(=O)c3cc(NC(=O)c4cc(NC(=O)CCCNC(=O)c5nc(NC(=O)c6nc(NC(=O)c7cc(NC(=O)c8nc(NC(=O)CCNC(=O)CCCc9ccc(N(CCCl)CCCl)cc9)cn8C)cn7C)cn6C)cn5C)cn4C)cn3C)cn2C)cn1C [Chb-M′]
MFI (mean fluorescent intensity) of surface c-kit (c-kit): 48.8
CI (Fa = 0.5) (MV4-11NR; p53mut(+), concomitant use of Chb-M′ and PRIMA-1, Chou-Talalay, CI<1 synergism): 0.380
IC50 (MV4-11NR; read-out: IC50 (μM) of Chb-M′ in concomitant use with PRIMA-1 (5 μM), p53mut(+), 48 hours, with 5 μM PRIMA-1): 0.00103 µM
IC50 (MV4-11NR; read-out: IC50 (μM) of Chb-M′ single agent administration, p53mut(+), 48 hours): > 100 µM
IC50 (PC-3 cells): 0.62 µM
CI (Fa = 0.5) (HL60; concomitant use of Chb-M′ and PRIMA-1, Chou-Talalay, CI<1 synergism): 1.10
IC50 (HL60; read-out: IC50 (μM) of Chb-M′ in concomitant use with PRIMA-1 (5 μM), with 5 μM PRIMA-1): 11.7 µM
IC50 (HL60; read-out: IC50 (μM) of Chb-M′ single agent administration): 11.4 µM
Effect of concomitant use with p53 inducer MIRA-1 on cell proliferation (p53 mutated cells): same results
IC50 compared with the EGFR inhibitor (gefitinib) (ABC-1): lower IC50 values
Gene expression pattern vs cells with all RUNX family members knockdown [1]: significantly correlated
